Consider 16 compounds from patent publication US8017401B2, “Method for determining redox activity and screening compounds based on redox activity” (State of Oregon acting by and through the State Board of …, priority 2005, dated 2011).

Data set [1] in a line: Reaction of NBD-Cl with KO2: stopped-flow kinetics, absorbance and fluorescence calibration. The data set is classed as physicochemical.
Data set [2] concerns the target xanthine-xanthine oxidase reaction (Homo sapiens, UniProt P47989). The experiment in a line: Superoxide measurement in the xanthine-xanthine oxidase reaction. The data set is classed as biochemical.
A short description of data set [3]: Redox activity by reaction with photo-excited dye under aerobic conditions (probe reduction at 470 nm and dye photo-bleaching). It is filed as physicochemical. The following applies: for redox activity (electron donor or electron acceptor): conclusion from the photo-excited dye assay of the respective example.
The nature of data set [4]: Redox activity of activators and inhibitors of membrane-bound transport proteins (overview statement). The data set is classed as physicochemical. The following applies: activators and inhibitors of the sarcoplasmic reticulum calcium release channel; no reference given.
For data set [5] the following is noted: modulators of L-type calcium channel, sodium channel, mitochondrial ATP-dependent potassium channel; references 1-3; cited from earlier work.
Data set [6] relates to sarcoplasmic reticulum Ca^2+ release channel. Conditions: cited from earlier work.
[7] abbreviates: 10 μM erythrosin, 50 μM NBD-Cl, 80% dimethyl sulfoxide / 20% 1 mM Tris-HCl, pH 7.4, compound 200 μM (diethyl benzocaine 2 mM) vs control.
Where [8] appears, read: 10 μM methylene blue, 100 μM NADH, 50 μM NBD-Cl, 10 mM Tris-HCl in water, pH 7.4, doxorubicin 25 and 50 μM vs zero.

Read-outs that look alike come from different tables or passages of the source.

Sequence of xanthine-xanthine oxidase reaction (P47989 whole entry): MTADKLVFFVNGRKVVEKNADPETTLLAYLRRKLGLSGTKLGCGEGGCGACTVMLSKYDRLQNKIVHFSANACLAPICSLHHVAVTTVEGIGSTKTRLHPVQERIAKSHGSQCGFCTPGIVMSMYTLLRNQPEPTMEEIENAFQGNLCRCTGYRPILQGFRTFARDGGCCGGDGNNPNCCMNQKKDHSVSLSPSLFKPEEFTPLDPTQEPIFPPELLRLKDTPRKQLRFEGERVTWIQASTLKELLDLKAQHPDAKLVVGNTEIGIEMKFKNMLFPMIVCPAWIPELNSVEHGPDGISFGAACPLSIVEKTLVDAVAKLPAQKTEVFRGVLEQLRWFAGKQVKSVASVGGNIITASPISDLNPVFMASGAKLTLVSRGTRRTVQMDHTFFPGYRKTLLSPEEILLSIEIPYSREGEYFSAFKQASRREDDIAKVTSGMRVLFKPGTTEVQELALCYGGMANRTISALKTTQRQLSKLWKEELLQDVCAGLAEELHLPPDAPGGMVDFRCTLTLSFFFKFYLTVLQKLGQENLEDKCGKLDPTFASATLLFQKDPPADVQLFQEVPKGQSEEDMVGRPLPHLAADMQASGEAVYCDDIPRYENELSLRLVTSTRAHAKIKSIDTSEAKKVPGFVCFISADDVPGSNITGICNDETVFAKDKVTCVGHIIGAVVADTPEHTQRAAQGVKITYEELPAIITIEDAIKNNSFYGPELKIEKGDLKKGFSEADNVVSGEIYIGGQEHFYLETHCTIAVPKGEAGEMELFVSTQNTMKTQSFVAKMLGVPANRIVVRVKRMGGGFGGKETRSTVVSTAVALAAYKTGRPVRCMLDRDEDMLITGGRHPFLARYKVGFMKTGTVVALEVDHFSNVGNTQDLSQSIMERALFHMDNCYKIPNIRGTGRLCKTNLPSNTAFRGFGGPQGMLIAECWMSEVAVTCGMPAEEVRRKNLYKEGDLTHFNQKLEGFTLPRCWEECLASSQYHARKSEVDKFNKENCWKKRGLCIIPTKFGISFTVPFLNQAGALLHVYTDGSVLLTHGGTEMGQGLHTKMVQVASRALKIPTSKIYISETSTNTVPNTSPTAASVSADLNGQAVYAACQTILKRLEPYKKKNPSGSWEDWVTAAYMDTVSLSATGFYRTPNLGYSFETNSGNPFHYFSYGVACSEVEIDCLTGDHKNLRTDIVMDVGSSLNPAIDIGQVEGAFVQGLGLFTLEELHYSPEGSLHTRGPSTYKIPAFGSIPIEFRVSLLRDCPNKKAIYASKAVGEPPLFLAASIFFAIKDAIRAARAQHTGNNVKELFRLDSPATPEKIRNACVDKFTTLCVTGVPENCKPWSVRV

Turning to “2,3-bis(2-methoxy-4-nitro-5-sulphophenyl)-5-[(phenylamino)carbonyl]-2H-tetrazolium hydroxide [XTT]”, the “second-order rate constants for reduction by superoxide” value in data set [1] is on record as 8.59±0.81×10^4 M^−1s^−1. Further, the “effect of the probe on the xanthine-xanthine oxidase reaction rate” value in data set [2] was “about a two-fold increase”. Moreover, the “Superoxide at 470 nm (initial rate of superoxide formation)” value in data set [2] (pH 7.4) is listed as 0.225 ± 0.010.
Regarding `COc1cc(-c2ccc(-n3nc(-c4ccccc4)n[n+]3-c3ccc([N+](=O)[O-])cc3)c(OC)c2)ccc1-n1nc(-c2ccccc2)n[n+]1-c1ccc([N+](=O)[O-])cc1` [NBT, nitroblue tetrazolium], in data set [2] (pH 7.4), the “Superoxide at 550 nm (initial rate of superoxide formation)” value is on record as 0.038 ± 0.002.
In the case of `CC[C@H]1[C@@H]2C[C@H]3[C@@H]4N(C)c5ccccc5[C@]45C[C@@H]([C@@H]2[C@H]5O)N3[C@@H]1O` [ajmalin], the “rate of NBD-Cl reduction (increasing absorbance at 470 nm)” value in data set [3] (setting [7]) is on record as “increased”. The “relative degree of electron donor activity” value in data set [3] (10 μM erythrosin, 50 μM NBD-Cl, 80% dimethyl sulfoxide, from level of increase of NBD-Cl reduction rate) is “stronger electron donor than diethyl benzocaine”. In addition, the “redox activity (electron donor or electron acceptor)” value (shortened to “redox activity”) in data set [3] is “electron donors”.
Regarding `CC(C)COCC(CN(Cc1ccccc1)c1ccccc1)N1CCCC1` (stereo not shown) [bepridil], in data set [3] (10 μM eosin, 50 μM XTT, 1 mM Tris-HCl in water, pH 7.4, bepridil 20 and 200 μM vs zero), the “rate of XTT reduction (increasing absorbance at 470 nm)” value is reported as “increased”. The “redox activity” value in data set [3] was “electron donor”.
Consider `Cn1c(=O)c2c(ncn2C)n(C)c1=O` [caffeine], for which the “redox activity” value in data set [4] is on record as “electron acceptors”.
Same read-out and setting: the same measure for `N[C@@H](CS)C(=O)O` [cysteine]: “electron donors”.
Consider `N[C@@H](CSSC[C@H](N)C(=O)O)C(=O)O` [cystine], for which the “redox activity” value in data set [4] is “electron acceptors”.
Still for that read-out and setting: the same measure for `CN(C)C(=O)/N=N/C(=O)N(C)C` [diamide]: “electron acceptors”.
`COc1cccc2c1C(=O)c1c(O)c3c(c(O)c1C2=O)C[C@@](O)(C(=O)CO)C[C@@H]3O[C@H]1C[C@H](N)[C@H](O)[C@H](C)O1` [doxorubicin]: in data set [3] (setting [8]), the “rate of NBD-Cl reduction (increasing absorbance at 470 nm)” value was “decreased” and the “rate of methylene blue bleaching (decreasing absorbance at 663 nm)” value was “decreased”. Also, the “redox activity” value in data set [3] was “electron acceptor”. Moreover, the “redox activity” value in data set [4] is reported as “electron acceptors”.
Take `N[C@@H](CCC(=O)N[C@@H](CS)C(=O)NCC(=O)O)C(=O)O` [glutathione]: the “redox activity” value in data set [4] is recorded as “electron donors”.
Consider `O=C1c2c(O)ccc(O)c2C(=O)c2c(NCCNCCO)ccc(NCCNCCO)c21` [mitoxantrone], for which, in data set [4], the “redox activity” value is recorded as “electron acceptors”.
Turning to `Oc1ccc(-c2[o+]c3cc(O)cc(O)c3cc2O)cc1` [pelargonidine], the “redox activity” value in data set [5] is on record as “electron acceptor”.
For `CCN(CC)CCOC(=O)c1ccc(N)cc1` [procaine], the “redox activity” value in data set [4] is reported as “electron donors”.
For the compound `CCCCNc1ccc(C(=O)OCCN(C)C)cc1` [tetracaine], in data set [3] (setting [7]), the “rate of NBD-Cl reduction (increasing absorbance at 470 nm)” value is recorded as “increased”. For the same compound, the “redox activity” value in data set [3] and in data set [4] was “electron donors” each time.
With diethyl benzocaine, in data set [3] (setting [7]), the “rate of NBD-Cl reduction (increasing absorbance at 470 nm)” value is recorded as “increased”. For the same compound, the “redox activity” value is given as “electron donors” in data set [3] and “electron donor” in data set [5].
ryanodine: in data set [6], the “concentrations at which it is a specific activator of the calcium release channel” value was 1 to 2 µM.
